Test results: article PMC7054748, “The identification and characterisation of autophagy inhibitors from the published kinase inhibitor sets” (Biochemical Journal, 2020)
Where “and” joins values, the source holds several entries; their conditions need not be identical. Identical values can stand only once.

How the values were obtained:
[1] = target: T1, ULK1 (Homo sapiens, UniProt O75385); experiment: ULK1 ADP Hunter Plus kinase activity assay; type: biochemical; conditions: resynthesized samples; mean potency in parenthesis, n = 5; read-out: IC50 against ULK1 (converted)
T1 construct: purchased MRC PPU Reagents and Services, Dundee, Scotland
T1 sequence (O75385 1-1050): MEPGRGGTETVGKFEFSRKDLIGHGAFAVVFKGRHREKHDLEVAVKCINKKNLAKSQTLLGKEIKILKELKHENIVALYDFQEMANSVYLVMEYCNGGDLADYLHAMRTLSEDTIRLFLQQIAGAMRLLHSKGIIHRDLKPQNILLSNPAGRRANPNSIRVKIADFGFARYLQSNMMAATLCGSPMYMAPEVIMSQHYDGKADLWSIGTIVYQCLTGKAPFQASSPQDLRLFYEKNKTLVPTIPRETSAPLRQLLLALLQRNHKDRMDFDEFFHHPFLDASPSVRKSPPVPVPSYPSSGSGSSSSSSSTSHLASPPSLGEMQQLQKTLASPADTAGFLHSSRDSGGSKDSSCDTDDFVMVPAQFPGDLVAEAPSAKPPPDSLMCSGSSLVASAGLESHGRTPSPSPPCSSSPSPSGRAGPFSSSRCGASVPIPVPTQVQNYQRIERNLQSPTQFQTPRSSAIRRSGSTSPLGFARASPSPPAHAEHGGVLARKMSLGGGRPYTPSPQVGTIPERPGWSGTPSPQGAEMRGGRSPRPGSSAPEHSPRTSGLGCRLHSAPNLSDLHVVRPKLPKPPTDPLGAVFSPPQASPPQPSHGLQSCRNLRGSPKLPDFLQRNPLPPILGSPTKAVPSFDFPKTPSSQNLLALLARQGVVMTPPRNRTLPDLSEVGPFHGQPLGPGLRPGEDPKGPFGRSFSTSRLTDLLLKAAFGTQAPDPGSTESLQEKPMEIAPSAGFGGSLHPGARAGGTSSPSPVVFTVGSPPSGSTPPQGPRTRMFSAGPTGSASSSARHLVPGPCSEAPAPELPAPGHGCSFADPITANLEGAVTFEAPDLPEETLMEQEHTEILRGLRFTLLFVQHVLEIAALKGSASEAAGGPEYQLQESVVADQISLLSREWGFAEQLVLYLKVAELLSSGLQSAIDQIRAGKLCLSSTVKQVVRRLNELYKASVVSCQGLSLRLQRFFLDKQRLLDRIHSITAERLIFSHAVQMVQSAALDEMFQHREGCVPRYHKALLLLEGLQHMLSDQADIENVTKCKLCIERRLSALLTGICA

[2] = system: LC3 flux in U2OS cells; experiment: Autophagic flux: LC3-II western blot with/without BafA1 in U2OS cells; type: cell-based, human; conditions: U2OS
Protocol: (§1) U2OS (human osteosarcoma-derived) cells were cultured in DMEM supplemented with 10% foetal bovine serum, 100 U/ml Penicillin and […] L-glutamine. Cells were pre-treated with compounds at the indicated concentrations for 60 min followed by treatments with EBSS or EBSS combined with/without 50 nM Bafilomycin A1 (Enzo Life Sciences) for a further 60 or 120 min with/without inhibitors, as indicated in figures/figure legends.
(§2) Prior to western blot analysis, cells were washed twice in ice-cold PBS and lysed in buffer containing 50 mM HEPES pH 7.4, 150 mM NaCl, 1 mM EDTA, 10% Glycerol, 0.5% NP-40, 1 mM DTT, supplemented with phosphatase inhibitors (1.15 mM sodium molybdate, 4 mM sodium tartrate, 0.01 M β-glycerophosphate, 1 mM sodium fluoride, 1 mM sodium orthovanadate) and protease inhibitor tablets (Roche) according to manufacturer's instructions. Lysates were then spun at 20 000×g for 10 min and the supernatant was collected for protein content estimation using Protein Assay Dye Reagent Concentrate from Bio-Rad. 4× LDS was added to the lysate (final dilution 1×) prior to heating at 95°C for 5 min. Electrophoresis and transfer to PVDF membranes was performed using standard protocols. Membranes were blocked in 5% milk in TBS-T prior to incubation with primary antibodies (in 5% milk/TBS-T for ULK1, pS555 (human S556) ULK1, pS757 (human S758) ULK1, pS318-ATG13, ATG13, and in 5% BSA/TBS-T for LC3 and α-Tubulin) under rotation overnight at 4°C followed by washes in TBS-T and incubation with HRP-conjugated secondary antibodies (in 5% milk in TBS-T) for 60 min at room temperature. Membranes were washed in TBS-T before application of ECL reagent (GE healthcare) and development on hypersensitive X-ray films (GE healthcare) (Figures 5A, 6C and Supplementary Figure S7C) or using BIO-RAD Clarity^TM western blotting substrate (Supplementary Figure S6C and Supplementary Figure S7A) and a BIO-RAD ChemiDoc^TM imaging system.
(§3) Quantification of western blots was performed with band densitometry analysis using ImageJ. Quantification of LC3 puncta was performed using either the ITCN plugging in ImageJ or Volocity. One-way or two-way Anova (using GraphPad Prism) followed by a post-hoc test, was used for statistical analysis of western blots and immunofluorescence as indicated in figure legends.

[3] = system: VPS34 (WIPI2 puncta); experiment: Cellular VPS34 activity: WIPI2 puncta immunofluorescence in U2OS cells; type: cell-based, human
Protocol: as §1
Prior to immunofluorescence, cells were grown on glass coverslips to ∼60% confluency. Cells were washed in PBS prior to fixation with 3.7% PFA/10 mM HEPES pH 7.0 at room temperature for 20 min. PFA was quenched using DMEM/10 mM HEPES pH 7.0/0.02% NaN3, followed by permeabilisation with 0.2% NP-40 in PBS for 5 min, followed by blocking with 1% BSA/PBS/0.02% NaN3. Primary antibody incubation was at room temperature for 60 min, followed by two 10-minute washes, then fluorescent secondary antibody incubation for 30 min and further washes (all in blocking buffer) before mounting onto glass slides. A wide field Nikon TS microscope was used for image capturing.
as §3

[4] = system: mTOR (ULK1 pS758); experiment: Upstream mTOR activity: ULK1 pS758 western blot in U2OS cells; type: cell-based, human; conditions: 100 nM (VPS34-IN1 500 nM), 60 min pre-treatment, ± EBSS 60 min
Protocol: as §1
as §2, with “Lysates” for “Prior to western blot analysis, cells were washed twice in ice-cold PBS and lysed in buffer containing 50 mM HEPES pH 7.4, 150 mM NaCl, 1 mM EDTA, 10% Glycerol, 0.5% NP-40, 1 mM DTT, supplemented with phosphatase inhibitors (1.15 mM sodium molybdate, 4 mM sodium tartrate, 0.01 M β-glycerophosphate, 1 mM sodium fluoride, 1 mM sodium orthovanadate) and protease inhibitor tablets (Roche) according to manufacturer's instructions. Lysates”
as §3

[5] = system: AMPK (ULK1 pS556); experiment: Upstream AMPK activity: ULK1 pS556 western blot in U2OS cells; type: cell-based, human; conditions: 100 nM (VPS34-IN1 500 nM), 60 min pre-treatment, ± EBSS 60 min
Protocol: as §1
as §2, with “Lysates” for “Prior to western blot analysis, cells were washed twice in ice-cold PBS and lysed in buffer containing 50 mM HEPES pH 7.4, 150 mM NaCl, 1 mM EDTA, 10% Glycerol, 0.5% NP-40, 1 mM DTT, supplemented with phosphatase inhibitors (1.15 mM sodium molybdate, 4 mM sodium tartrate, 0.01 M β-glycerophosphate, 1 mM sodium fluoride, 1 mM sodium orthovanadate) and protease inhibitor tablets (Roche) according to manufacturer's instructions. Lysates”
as §3

[6] = system: PI3Kδ; design: method as in ChEMBL database; conditions: statement in discussion on published selectivity; ref ChEMBL database; cited from earlier work
[7] = target: AMPK α1β2ɣ1 (Homo sapiens, UniProt O43741+P54619+Q13131); experiment: AMPK ADP Hunter Plus kinase activity assay
AMPK α1β2ɣ1, sequence (Q13131 whole entry): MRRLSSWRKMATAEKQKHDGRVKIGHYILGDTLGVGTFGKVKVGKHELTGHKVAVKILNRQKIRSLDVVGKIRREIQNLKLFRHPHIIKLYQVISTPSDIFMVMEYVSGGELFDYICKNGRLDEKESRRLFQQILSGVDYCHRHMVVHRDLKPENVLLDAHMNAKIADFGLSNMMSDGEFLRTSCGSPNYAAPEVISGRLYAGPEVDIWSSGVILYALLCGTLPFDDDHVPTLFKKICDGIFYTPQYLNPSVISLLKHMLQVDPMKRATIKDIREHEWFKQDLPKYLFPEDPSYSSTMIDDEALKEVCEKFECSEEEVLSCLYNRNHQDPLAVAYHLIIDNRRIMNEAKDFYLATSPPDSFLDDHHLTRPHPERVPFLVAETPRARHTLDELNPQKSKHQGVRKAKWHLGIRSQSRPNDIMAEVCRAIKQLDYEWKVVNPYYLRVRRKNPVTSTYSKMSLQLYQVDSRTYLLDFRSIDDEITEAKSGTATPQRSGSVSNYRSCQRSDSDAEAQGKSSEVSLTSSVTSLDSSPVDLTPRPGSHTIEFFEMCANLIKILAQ
AMPK α1β2ɣ1, sequence (O43741 whole entry partner): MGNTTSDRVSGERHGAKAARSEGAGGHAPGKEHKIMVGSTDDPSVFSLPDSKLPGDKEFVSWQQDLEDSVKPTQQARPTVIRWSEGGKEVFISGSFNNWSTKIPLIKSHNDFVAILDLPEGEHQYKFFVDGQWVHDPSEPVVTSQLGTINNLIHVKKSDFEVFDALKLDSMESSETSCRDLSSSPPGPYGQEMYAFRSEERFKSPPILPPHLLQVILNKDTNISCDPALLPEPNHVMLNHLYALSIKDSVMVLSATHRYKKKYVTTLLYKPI
AMPK α1β2ɣ1, sequence (P54619 whole entry partner): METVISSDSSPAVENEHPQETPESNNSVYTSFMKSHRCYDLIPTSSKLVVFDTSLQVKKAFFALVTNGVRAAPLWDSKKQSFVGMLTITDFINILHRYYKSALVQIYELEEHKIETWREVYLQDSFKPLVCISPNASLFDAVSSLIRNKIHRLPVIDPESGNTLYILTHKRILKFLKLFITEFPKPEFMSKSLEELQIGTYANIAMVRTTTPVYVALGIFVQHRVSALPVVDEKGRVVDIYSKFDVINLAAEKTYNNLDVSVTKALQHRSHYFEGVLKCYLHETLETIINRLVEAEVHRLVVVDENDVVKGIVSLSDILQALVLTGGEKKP

[8] = target: VPS34 (Homo sapiens, UniProt Q8NEB9); experiment: VPS34 ADP Hunter Plus kinase activity assay
VPS34, sequence (Q8NEB9 whole entry): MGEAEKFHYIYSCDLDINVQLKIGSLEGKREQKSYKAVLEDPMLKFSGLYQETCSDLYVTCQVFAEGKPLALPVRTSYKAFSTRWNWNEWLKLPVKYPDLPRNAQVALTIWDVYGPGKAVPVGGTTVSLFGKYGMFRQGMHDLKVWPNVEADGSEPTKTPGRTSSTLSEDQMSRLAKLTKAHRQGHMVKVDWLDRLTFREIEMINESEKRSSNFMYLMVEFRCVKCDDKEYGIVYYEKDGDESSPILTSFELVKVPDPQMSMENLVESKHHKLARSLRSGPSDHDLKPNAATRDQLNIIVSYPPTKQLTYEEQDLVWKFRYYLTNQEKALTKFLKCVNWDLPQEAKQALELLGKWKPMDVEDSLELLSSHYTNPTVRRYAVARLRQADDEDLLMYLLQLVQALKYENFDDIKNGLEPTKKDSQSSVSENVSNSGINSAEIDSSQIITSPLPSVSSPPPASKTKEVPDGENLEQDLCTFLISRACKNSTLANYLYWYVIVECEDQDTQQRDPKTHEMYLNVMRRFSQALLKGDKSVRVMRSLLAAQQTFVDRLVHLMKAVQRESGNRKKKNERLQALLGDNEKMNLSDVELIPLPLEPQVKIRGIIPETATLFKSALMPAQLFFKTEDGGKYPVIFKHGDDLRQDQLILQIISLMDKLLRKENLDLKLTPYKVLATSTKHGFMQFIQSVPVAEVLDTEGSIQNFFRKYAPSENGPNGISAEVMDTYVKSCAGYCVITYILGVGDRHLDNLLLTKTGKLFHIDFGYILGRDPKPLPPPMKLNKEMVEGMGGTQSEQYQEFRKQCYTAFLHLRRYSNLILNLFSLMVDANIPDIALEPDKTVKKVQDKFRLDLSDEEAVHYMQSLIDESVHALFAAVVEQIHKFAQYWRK

## O=c1cc(N2CCOCC2)nc2n(Cc3cccc(Cl)c3Cl)c(C3CC3)nn12 [GSK2358994A]
[1]
  IC50: > 100 µM
[2]; 100 nM, 60 min pre-treatment then 60 min EBSS
  Effect on LC3 flux under EBSS starvation: significantly reduced LC3 flux
[2]; EBSS + 50 nM BafA1, as low as, greater effect at 100 nM
  Concentration blocking EBSS-induced autophagy (LC3) flux: ≤ 10 nM
[3]; 100 nM, 60 min pre-treatment then 60 min EBSS, vs EBSS only
  Effect on EBSS-induced WIPI2 puncta: significantly reduced
[3]; EBSS, as low as
  Concentration working in cells (WIPI2 puncta reduction): ≤ 100 nM
[4]
  Effect on mTORC1 activity (pS758 ULK1): unaffected
[5]
  Effect on AMPK activity (pS556 ULK1): unaffected
[6]
  Potency against PI3Kδ: potent against PI3Kδ
[7]
  IC50: > 100 µM
[8]; IC50 against VPS34, resynthesized samples, mean potency in parenthesis, n = 5
  IC50: 8.6 nM and 9 nM
[8]; pIC50 against VPS34, original PKIS samples, concentration-dependent retest of screen hits
  IC50: < 1000 nM
[8]; pIC50 against VPS34, resynthesized samples, 50 µM ATP (KM app), mean ± SD, n = 5
  IC50: 8.51 nM
[8]; varying ATP below 200 µM, Michaelis–Menten and Lineweaver–Burk plots
  Mechanism of inhibition of VPS34 with respect to ATP: primarily ATP competitive inhibition
[8]; varying PI:PS below 12 µM
  Mechanism of inhibition of VPS34 with respect to PI:PS: clear non-competitive inhibition
